Measured values published in ChEMBL document CHEMBL1201862, “PubChem BioAssay data set” (2004).
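96-well plates; 48 h exposure; 5 concentrations. Endpoints by linear interpolation between flanking doses. Not reached: highest tested concentration assigned. GI50 marks 50% less growth.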 Activity calls are given as the source filed them. Cut-off read from the data, not from the text of the source: active = GI50 up to about 1.1 µM and inactive = higher.

Assays:
Assay in all cases: growth of human tumour cells (NCI), 48 h
A549 = system: A549
COLO 205 = system: COLO 205
HCC 2998 = system: HCC 2998
HL-60 = system: HL-60
HT-29 = system: HT-29
K562 = system: K562
KM-20L2 = system: KM-20L2
KM12 = system: KM12
M14 = system: M14
OVCAR-8 = system: OVCAR-8
SF-539 = system: SF-539
SN12C = system: SN12C
SNB-19 = system: SNB-19
TK-10 = system: TK-10
UACC-257 = system: UACC-257
UACC-62 = system: UACC-62
Malme-3M = system: Malme-3M
NCI/ADR-RES = system: NCI/ADR-RES
PC-3 = system: PC-3
DLD-1 = system: DLD-1

Row | Structure (SMILES) | GI50 (A549) | GI50 (COLO 205) | GI50 (HCC 2998) | GI50 (HL-60) | GI50 (HT-29) | GI50 (K562) | GI50 (KM-20L2) | GI50 (KM12) | GI50 (M14) | GI50 (OVCAR-8) | GI50 (SF-539) | GI50 (SN12C) | GI50 (SNB-19) | GI50 (TK-10) | GI50 (UACC-257) | GI50 (UACC-62) | GI50 (Malme-3M) | GI50 (NCI/ADR-RES) | GI50 (PC-3) | GI50 (DLD-1)
1 | CCOC(=O)c1c2cccccc2n2c(=O)cc(C)nc12 | > 100 µM (inactive) | > 100 µM (inactive) | > 100 µM (inactive) | > 100 µM (inactive) | > 100 µM (inactive) | > 100 µM (inactive) | > 100 µM (inactive) | > 100 µM (inactive) | > 100 µM (inactive) | > 100 µM (inactive) | > 100 µM (inactive) | > 100 µM (inactive) | > 100 µM (inactive) | > 100 µM (inactive) | > 100 µM (inactive) | 71.6 µM (inactive) |  |  |  | 
2 | COc1ccc(C(CC(=O)C(C)(C)CN2CCCCC2)SCCS(=O)(=O)O)cc1 (centres undefined) | 41.4 µM (inactive) | 28.4 µM (inactive) | 67.3 µM (inactive) | 41.4 µM (inactive) | 26.2 µM (inactive) | 22.9 µM (inactive) |  | 30.4 µM (inactive) | 18.7 µM (inactive) | 33.3 µM (inactive) | 19.9 µM (inactive) | 54.2 µM (inactive) | 83.9 µM (inactive) | 45.7 µM (inactive) | 34.4 µM (inactive) | 37.3 µM (inactive) | 20.9 µM (inactive) | 35.4 µM (inactive) | 53.7 µM (inactive) | 
3 | C=CCC(C(=O)O)c1ccccc1 (centres undefined) | > 100 µM (inactive) | > 100 µM (inactive) | > 100 µM (inactive) | > 100 µM (inactive) | > 100 µM (inactive) | > 100 µM (inactive) |  | > 100 µM (inactive) | > 100 µM (inactive) | > 100 µM (inactive) | > 100 µM (inactive) | > 100 µM (inactive) | > 100 µM (inactive) | > 100 µM (inactive) | > 100 µM (inactive) | > 100 µM (inactive) | > 100 µM (inactive) | > 100 µM (inactive) | > 100 µM (inactive) | 
4 | C=C1CCC2C(C)(CO)C(O)CCC2(C)C1C/C=C1\C(=O)OCC1O (centres undefined) | 23.8 µM (inactive) | 14.8 µM (inactive) | 22.5 µM (inactive) | 16.2 µM (inactive) | 5.28 µM (inactive) | 3.24 µM (inactive) |  | 14.1 µM (inactive) | 17.8 µM (inactive) | 10.1 µM (inactive) | 20.6 µM (inactive) | 15.2 µM (inactive) | 54.8 µM (inactive) | 52.8 µM (inactive) | 20 µM (inactive) | 18.8 µM (inactive) | 15.6 µM (inactive) | 25 µM (inactive) | 20.1 µM (inactive) | 
5 | N#Cc1nc(/C=C/c2nc(C#N)c(N)o2)oc1N | > 10 µM (inactive) | > 10 µM (inactive) | > 10 µM (inactive) | > 10 µM (inactive) | > 10 µM (inactive) | > 10 µM (inactive) |  | > 10 µM (inactive) | > 10 µM (inactive) | > 10 µM (inactive) | > 10 µM (inactive) | > 10 µM (inactive) | > 10 µM (inactive) | > 10 µM (inactive) | > 10 µM (inactive) | > 10 µM (inactive) | > 10 µM (inactive) | > 10 µM (inactive) | > 10 µM (inactive) | 
6 | N=C(N)SCCCN | 37.7 µM (inactive) | 13.7 µM (inactive) | 0.0455 µM (active) | 1.87 µM (inactive) | 16 µM (inactive) | 6.03 µM (inactive) |  | 24.2 µM (inactive) | 3.52 µM (inactive) | 3.87 µM (inactive) | 5.81 µM (inactive) | 25.2 µM (inactive) | 20.7 µM (inactive) | 3.65 µM (inactive) | 5.4 µM (inactive) | 17.6 µM (inactive) | 8.77 µM (inactive) | 5.02 µM (inactive) | 15.6 µM (inactive) | 
7 | COc1cc(C2Oc3cc(-c4oc5cc(O)cc(O)c5c(=O)c4O)ccc3OC2CO)ccc1O (centres undefined) [DEHYDROSILYLBIN] | 9.14 µM (inactive) | 26.7 µM (inactive) | 24.8 µM (inactive) | 9.48 µM (inactive) | 25.9 µM (inactive) | 11 µM (inactive) |  | 20.1 µM (inactive) | 12.4 µM (inactive) | 30.1 µM (inactive) | 4.24 µM (inactive) | 10.8 µM (inactive) | 7.43 µM (inactive) | 10.9 µM (inactive) | 32 µM (inactive) | 3.42 µM (inactive) | 22.8 µM (inactive) |  |  | 14.5 µM (inactive)
8 | CC1CCC2C(C(=O)O[C@H]3C4C=CO[C@@H](OC5OC(CO)C(O)C(O)C5O)C4[C@@]4(CO)O[C@@H]34)=CO[C@@H](OC3OC(CO)C(O)C(O)C3O)C12 (some centres undefined) | > 10 µM (inactive) | > 10 µM (inactive) | > 10 µM (inactive) | > 10 µM (inactive) | > 10 µM (inactive) | > 10 µM (inactive) |  | > 10 µM (inactive) | > 10 µM (inactive) | > 10 µM (inactive) | > 10 µM (inactive) | > 10 µM (inactive) | > 10 µM (inactive) | > 10 µM (inactive) | > 10 µM (inactive) | > 10 µM (inactive) | > 10 µM (inactive) | > 10 µM (inactive) | > 10 µM (inactive) | 
9 | Cc1nc(=O)n2c(C)n[nH]c2c1C(=O)Nc1cc(Cl)cc(Cl)c1 | 19.2 µM (inactive) | 26.7 µM (inactive) |  | 20.1 µM (inactive) | 31.3 µM (inactive) | 23.8 µM (inactive) |  | 31.9 µM (inactive) | 35.6 µM (inactive) | 45.5 µM (inactive) | 21.8 µM (inactive) | 15.9 µM (inactive) |  | 19.8 µM (inactive) |  | 16.2 µM (inactive) | 30.9 µM (inactive) |  |  | 19.1 µM (inactive)
10 | CCOC(CN(C)C(=O)Nc1cccc2ccccc12)OCC | > 10 µM (inactive) | > 10 µM (inactive) | > 10 µM (inactive) | > 10 µM (inactive) | > 10 µM (inactive) | > 10 µM (inactive) |  | > 10 µM (inactive) | > 10 µM (inactive) | > 10 µM (inactive) | > 10 µM (inactive) | > 10 µM (inactive) | > 10 µM (inactive) | > 10 µM (inactive) | > 10 µM (inactive) | > 10 µM (inactive) | > 10 µM (inactive) | > 10 µM (inactive) | > 10 µM (inactive) | 
11 | OCCC1(O)CCC(O)CC1 (centres undefined) | > 100 µM (inactive) | > 100 µM (inactive) | > 100 µM (inactive) | > 100 µM (inactive) | > 100 µM (inactive) | > 100 µM (inactive) |  | > 100 µM (inactive) | > 100 µM (inactive) | > 100 µM (inactive) | > 100 µM (inactive) |  | > 100 µM (inactive) | > 100 µM (inactive) | > 100 µM (inactive) | > 100 µM (inactive) | > 100 µM (inactive) |  |  | > 100 µM (inactive)
12 | COc1cc(C2c3cc4c(cc3[C@@H](Nc3ccc([N+](=O)[O-])cc3)C3COC(=O)[C@H]23)OCO4)cc(OC)c1O (some centres undefined) |  | 3.79 µM (inactive) | 2.99 µM (inactive) | 0.263 µM (active) | 2.64 µM (inactive) | 2.44 µM (inactive) | 2.12 µM (inactive) | 2.56 µM (inactive) | 1.33 µM (inactive) | 1.83 µM (inactive) | 0.92 µM (active) | 0.853 µM (active) | 0.778 µM (active) | 2.41 µM (inactive) | 4.65 µM (inactive) | 0.971 µM (active) | 2.01 µM (inactive) | 3.39 µM (inactive) | 2.16 µM (inactive) | 
13 | O=[N+]([O-])c1ccc(NN/N=N/c2ccc(-c3nc4ccccc4[nH]3)cc2)c([N+](=O)[O-])c1 | 58.3 µM (inactive) | 27.7 µM (inactive) | 31 µM (inactive) | 13.8 µM (inactive) | 36.5 µM (inactive) | 6.52 µM (inactive) |  | 31.9 µM (inactive) | 23.1 µM (inactive) | 22.5 µM (inactive) | 40.9 µM (inactive) | 64.6 µM (inactive) | > 100 µM (inactive) | > 100 µM (inactive) | 76.7 µM (inactive) | 4.06 µM (inactive) | 75 µM (inactive) | 45.7 µM (inactive) | 27.8 µM (inactive) | 
14 | O=C(NC(Nc1ccc(F)c(Cl)c1)(C(F)(F)F)C(F)(F)F)OCc1ccccc1 | 43 µM (inactive) | 17.8 µM (inactive) | 22.1 µM (inactive) | 11.5 µM (inactive) | 34 µM (inactive) | 10.8 µM (inactive) |  | 36.3 µM (inactive) | 37 µM (inactive) | 35 µM (inactive) | 17.6 µM (inactive) | 31.2 µM (inactive) | 20.9 µM (inactive) | 63.1 µM (inactive) | > 100 µM (inactive) | 17.7 µM (inactive) | 43.5 µM (inactive) | 27.7 µM (inactive) | 17.4 µM (inactive) | 
15 | COc1cc2c3c(c4cc(OC)c(OC)cc4c2cc1OC)[C@H](O)[C@@H]1CCCN1C3 | < 0.0254 µM (active) | < 0.0179 µM (active) | < 0.0243 µM (active) | < 0.0357 µM (active) | < 0.0191 µM (active) | < 0.021 µM (active) |  | < 0.0232 µM (active) | < 0.0332 µM (active) | < 0.0308 µM (active) | < 0.0365 µM (active) | < 0.0303 µM (active) | 0.0276 µM (active) | 0.0562 µM (active) | < 0.0383 µM (active) | < 0.0337 µM (active) | < 0.0384 µM (active) | < 0.0372 µM (active) | < 0.0303 µM (active) | 
16 | CC1=C(C(=O)OCCc2ccc([N+](=O)[O-])cc2)C(c2ccccc2[N+](=O)[O-])C(C(=O)OC(C)C)=C(C)N1 (centres undefined) | 2.96 µM (inactive) | 6.01 µM (inactive) | 7.43 µM (inactive) | 2.2 µM (inactive) | 5.07 µM (inactive) | 3.39 µM (inactive) |  | 3.48 µM (inactive) | 4.05 µM (inactive) | 3.66 µM (inactive) | 4.15 µM (inactive) | 6.87 µM (inactive) | 5.61 µM (inactive) | 5.87 µM (inactive) | 4.04 µM (inactive) | 4.29 µM (inactive) | 7.19 µM (inactive) | 3.19 µM (inactive) | 1.49 µM (inactive) | 
